Here are results for 28 compounds from ChEMBL document CHEMBL4024732, “Discovery of a novel and potent class of anti-HIV-1 maturation inhibitors with improved virology profile against gag polymorphisms” (Bioorg Med Chem Lett, 2017).

The IC50 is the point on the concentration scale where inhibition reaches its midpoint. Higher therefore signals weaker potency in that assay.

Calls of active or inactive are those of the source. No cut-off for these calls is given here.

Experiment [1] is described as follows: Inhibition of wild type HIV-1 clade B NL4-3 Gag polyprotein SP1 infected in human MT4 cells. The format is cell-based. The following applies: Human immunodeficiency virus 1, clade B NL4-3, MT4.
Experiment [2] is described as follows: Inhibition of bevirimat-resistant HIV1 clade B NL4-3 CA-SP1 V370A mutant infected in human MT4 cells. It counts as cell-based. The following applies: Human immunodeficiency virus 1, clade B NL4-3, MT4.
Experiment [3] can be described thus: Inhibition of bevirimat-resistant HIV1 clade B NL4-3 CA-SP1 T371A mutant infected in human MT4 cells. It counts as cell-based. Conditions: Human immunodeficiency virus 1, clade B NL4-3, MT4.
Experiment [4] is described as follows: Inhibition of bevirimat-resistant HIV1 clade B NL4-3 CA-SP1 Q369H mutant infected in human MT4 cells. It counts as cell-based. Conditions: Human immunodeficiency virus 1, clade B NL4-3, MT4.
Experiment [5] deals with Human immunodeficiency virus 1. As to the kind of experiment: Inhibition of HIV1 Gag CA-SP1 cleavage infected in human PBMC at 10 uM measured after 8 days post infection by Western blot analysis.
Experiment [6] can be described thus: Inhibition of bevirimat-resistant HIV-1 clade B isolate ASJM108 Gag V370A mutant infected in human PBMC after 7 days by scintillation counting method. The following applies: Human immunodeficiency virus 1, clade B isolate ASJM108, 168 h.
For experiment [7], the system named is Human immunodeficiency virus 1. As to the kind of experiment: Ratio of compound effect in presence of 40% human serum to compound effect in absence of serum for antiviral activity against HIV1 by cell based assay. It counts as functional.
Experiment [8] can be described thus: Inhibition of bevirimat-resistant HIV-1 clade A isolate I-2496 V370A mutant infected in human PBMC after 7 days by scintillation counting method. Conditions: Human immunodeficiency virus 1, clade A isolate I-2496, 168 h.
Experiment [9] is described as follows: Inhibition of bevirimat-resistant HIV-1 clade B isolate CC1/85 CA-SP1 V370A mutant infected in human PBMC measured after 7 days by scintillation counting method. The following applies: Human immunodeficiency virus 1, clade B isolate CC1/85, 168 h.

Regarding `CC(C)C1=C2[C@H]3CC[C@@H]4[C@@]5(C)CC[C@H](OC(=O)CC(C)(C)C(=O)O)C(C)(C)[C@@H]5CC[C@@]4(C)[C@]3(C)CC[C@@]2(C(=O)C(=O)NCC2CCCCC2)CC1=O`, the IC50 in experiment [1] was 11 nM; in experiment [2] it was 27 nM.
With `CC(C)C1=C2[C@H]3CC[C@@H]4[C@@]5(C)CC[C@H](OC(=O)CC(C)(C)C(=O)O)C(C)(C)[C@@H]5CC[C@@]4(C)[C@]3(C)CC[C@@]2(C(=O)C(=O)NC2(c3ccc(Cl)cc3)CCCC2)CC1=O`, the IC50 in experiment [3] amounted to 33 nM; in experiment [1], 66 nM; in experiment [4], 100 nM; in experiment [2], 110 nM.
Consider `CC(C)C1=C2[C@H]3CC[C@@H]4[C@@]5(C)CC[C@H](OC(=O)CC(C)(C)C(=O)O)C(C)(C)[C@@H]5CC[C@@]4(C)[C@]3(C)CC[C@@]2(C(=O)C(=O)NCc2ccc(F)cc2)CC1=O`, for which the IC50 in experiment [1] came to 16 nM; in experiment [2], 202 nM.
The matching figures for `CC(C)C1=C2[C@H]3CC[C@@H]4[C@@]5(C)CC[C@H](OC(=O)CC(C)(C)C(=O)O)C(C)(C)[C@@H]5CC[C@@]4(C)[C@]3(C)CC[C@@]2(C(=O)C(=O)NC2CCCCC2)CC1=O`: 28 nM and 329 nM.
The matching figures for `CNC(=O)C(=O)[C@@]12CC[C@]3(C)[C@H](CC[C@@H]4[C@@]5(C)CC[C@H](OC(=O)CC(C)(C)C(=O)O)C(C)(C)[C@@H]5CC[C@]43C)C1=C(C(C)C)C(=O)C2`: 1320 nM and 6670 nM.
The matching figures for `CC(C)C1=C2[C@H]3CC[C@@H]4[C@@]5(C)CC[C@H](OC(=O)CC(C)(C)C(=O)O)C(C)(C)[C@@H]5CC[C@@]4(C)[C@]3(C)CC[C@@]2(C(=O)C(=O)NC(C)(C)c2ccccc2)CC1=O`: 18 nM and 19 nM.
For `CC(C)C1=C2[C@H]3CC[C@@H]4[C@@]5(C)CC[C@H](OC(=O)CC(C)(C)C(=O)O)C(C)(C)[C@@H]5CC[C@@]4(C)[C@]3(C)CC[C@@]2(C(=O)C(=O)NCc2ccccc2Cl)CC1=O`, the IC50 in [1] stood at 17 nM; in experiment [2], 486 nM.
The matching figures for `CC(C)C1=C2[C@H]3CC[C@@H]4[C@@]5(C)CC[C@H](OC(=O)CC(C)(C)C(=O)O)C(C)(C)[C@@H]5CC[C@@]4(C)[C@]3(C)CC[C@@]2(C(=O)C(=O)NCCCN2CCCC2)CC1=O`: 1180 nM and 7500 nM.
On to `CC(C)C1=C2[C@H]3CC[C@@H]4[C@@]5(C)CC[C@H](OC(=O)CC(C)(C)C(=O)O)C(C)(C)[C@@H]5CC[C@@]4(C)[C@]3(C)CC[C@@]2(C(=O)C(=O)N[C@@H](C)c2ccc(Cl)cc2)CC1=O`, for which the 50% inhibitory concentration (IC50) in [3] was found to be 19 nM; in experiment [1], 39 nM; in experiment [4], 60 nM; in experiment [2], 474 nM.
For the compound `CC(C)C1=C2[C@H]3CC[C@@H]4[C@@]5(C)CC[C@H](OC(=O)CC(C)(C)C(=O)O)C(C)(C)[C@@H]5CC[C@@]4(C)[C@]3(C)CC[C@@]2(C(=O)C(=O)NCc2cccc(Cl)c2)CC1=O`, the IC50 in experiment [1] came to 16 nM; in experiment [2], 370 nM.
Consider `CC(C)C1=C2[C@H]3CC[C@@H]4[C@@]5(C)CC[C@H](OC(=O)CC(C)(C)C(=O)O)C(C)(C)[C@@H]5CC[C@@]4(C)[C@]3(C)CC[C@@]2(C(=O)C(=O)N[C@H](C)c2ccc(Cl)cc2)CC1=O`, for which the IC50 in experiment [3] amounted to 5 nM; in experiment [1], 18 nM; in experiment [4], 25 nM; in experiment [2], 25 nM.
Regarding `CC(C)C1=C2[C@H]3CC[C@@H]4[C@@]5(C)CC[C@H](OC(=O)CC(C)(C)C(=O)O)C(C)(C)[C@@H]5CC[C@@]4(C)[C@]3(C)CC[C@@]2(C(=O)C(=O)NCc2c(Cl)cccc2Cl)CC1=O`, the half-inhibitory concentration (IC50) was found to be 85 nM in experiment [1] and 1070 nM in experiment [2].
Consider `CC(C)C1=C2[C@H]3CC[C@@H]4[C@@]5(C)CC[C@H](OC(=O)CC(C)(C)C(=O)O)C(C)(C)[C@@H]5CC[C@@]4(C)[C@]3(C)CC[C@@]2(C(=O)C(=O)Nc2ccc(F)cc2)CC1=O`, for which the IC50 in [1] is 130 nM; in [2], 1800 nM.
In the same order, the values of `COc1ccc(CNC(=O)C(=O)[C@@]23CC[C@]4(C)[C@H](CC[C@@H]5[C@@]6(C)CC[C@H](OC(=O)CC(C)(C)C(=O)O)C(C)(C)[C@@H]6CC[C@]54C)C2=C(C(C)C)C(=O)C3)cc1` are 99 nM and 8000 nM.
Take `CC(C)C1=C2[C@H]3CC[C@@H]4[C@@]5(C)CC[C@H](OC(=O)CC(C)(C)C(=O)O)C(C)(C)[C@@H]5CC[C@@]4(C)[C@]3(C)CC[C@@]2(C(=O)C(=O)NC(C)(C)c2ccc(Cl)cc2)CC1=O`: the IC50 is 11 nM in [3], 19 nM in [1], 17 nM in [4] and 17 nM in [2].
In the case of `CC(C)C1=C2[C@H]3CC[C@@H]4[C@@]5(C)CC[C@H](OC(=O)CC(C)(C)C(=O)O)C(C)(C)[C@@H]5CC[C@@]4(C)[C@]3(C)CC[C@@]2(C(=O)C(=O)O)CC1=O`, the IC50 in experiment [1] is above 10000 nM.
In the case of `CC[C@@H](NC(=O)C(=O)[C@@]12CC[C@]3(C)[C@H](CC[C@@H]4[C@@]5(C)CC[C@H](OC(=O)CC(C)(C)C(=O)O)C(C)(C)[C@@H]5CC[C@]43C)C1=C(C(C)C)C(=O)C2)c1ccc(Cl)cc1`, the IC50 in experiment [3] is 12 nM; in experiment [1], 28 nM; in experiment [4], 74 nM; in [2], 64 nM.
For `CC(C)C1=C2[C@H]3CC[C@@H]4[C@@]5(C)CC[C@H](OC(=O)CC(C)(C)C(=O)O)C(C)(C)[C@@H]5CC[C@@]4(C)[C@]3(C)CC[C@@]2(C(=O)C(=O)NCCN2CCCC2)CC1=O`, the IC50 in experiment [1] is 1000 nM; in [2], above 10000 nM.
As to `CC(C)C1=C2[C@H]3CC[C@@H]4[C@@]5(C)CC[C@H](OC(=O)CC(C)(C)C(=O)O)C(C)(C)[C@@H]5CC[C@@]4(C)[C@]3(C)CC[C@@]2(C(=O)C(=O)NCc2ccc(C(F)(F)F)cc2)CC1=O`, the values for the 50% inhibitory concentration (IC50) in [1] and in [2] were 135 nM and 1320 nM, respectively.
For `CC(C)C1=C2[C@H]3CC[C@@H]4[C@@]5(C)CC[C@H](OC(=O)CC(C)(C)C(=O)O)C(C)(C)[C@@H]5CC[C@@]4(C)[C@]3(C)CC[C@@]2(C(=O)C(=O)NCc2ccc(Cl)cc2)CC1=O`, the IC50 in [1] worked out at 12 nM; in experiment [2], 87 nM.
The matching figures for `CC(C)C1=C2[C@H]3CC[C@@H]4[C@@]5(C)CC[C@H](OC(=O)CC(C)(C)C(=O)O)C(C)(C)[C@@H]5CC[C@@]4(C)[C@]3(C)CC[C@@]2(C(=O)C(=O)NCc2cccs2)CC1=O`: 21 nM and 1620 nM.
Take `CC[C@H](NC(=O)C(=O)[C@@]12CC[C@]3(C)[C@H](CC[C@@H]4[C@@]5(C)CC[C@H](OC(=O)CC(C)(C)C(=O)O)C(C)(C)[C@@H]5CC[C@]43C)C1=C(C(C)C)C(=O)C2)c1ccc(Cl)cc1`: the IC50 in experiment [3] was 26 nM; in experiment [1], 54 nM; in [4], 62 nM; in [2] it was 372 nM.
As to `CC(C)C1=C2[C@H]3CC[C@@H]4[C@@]5(C)CC[C@H](OC(=O)CC(C)(C)C(=O)O)C(C)(C)[C@@H]5CC[C@@]4(C)[C@]3(C)CC[C@@]2(C(=O)C(=O)NCc2ccc(Cl)cc2Cl)CC1=O`, the IC50 in experiment [1] came to 37 nM; in [2] it was 193 nM.
The matching figures for `Cc1ccc(NC(=O)C(=O)[C@@]23CC[C@]4(C)[C@H](CC[C@@H]5[C@@]6(C)CC[C@H](OC(=O)CC(C)(C)C(=O)O)C(C)(C)[C@@H]6CC[C@]54C)C2=C(C(C)C)C(=O)C3)cc1`: 251 nM and 664 nM.
`CC(C)C1=C2[C@H]3CC[C@@H]4[C@@]5(C)CC[C@H](OC(=O)CC(C)(C)C(=O)O)C(C)(C)[C@@H]5CC[C@@]4(C)[C@]3(C)CC[C@@]2(C(=O)C(=O)N2CCC2)CC1=O`: the results for the IC50 in experiment [1] and in experiment [2] were 5600 nM and above 10000 nM, respectively.
For the compound `CC(C)C1=C2[C@H]3CC[C@@H]4[C@@]5(C)CC[C@H](OC(=O)CC(C)(C)C(=O)O)C(C)(C)[C@@H]5CC[C@@]4(C)[C@]3(C)CC[C@@]2(C(=O)C(=O)NC2(c3ccc(Cl)cc3)CCC2)CC1=O`, the IC50 in experiment [3] is 17 nM; in experiment [1], 29 nM; in [4], 48 nM; in [2], 65 nM.
As to `C=C(C)[C@@H]1CC[C@]2(C(=O)O)CC[C@]3(C)[C@H](CC[C@@H]4[C@@]5(C)CC[C@H](OC(=O)CC(C)(C)C(=O)O)C(C)(C)[C@@H]5CC[C@]43C)[C@@H]12` [BEVIRIMAT], the inhibition result in [5] is “Active”. For the same compound, the IC50 in [6] was above 10 µM; in experiment [3] it was 252 nM; in experiment [1], 270 nM; in experiment [8] it was above 4 µM; in experiment [9] it was above 10 µM; in experiment [4] it was 383 nM. The same compound registered an IC50 in [2] of 6510 nM. For the same compound, the Ratio in [7] is on record as 52.
Turning to `CC(C)C1=C2[C@H]3CC[C@@H]4[C@@]5(C)CC[C@H](OC(=O)CC(C)(C)C(=O)O)C(C)(C)[C@@H]5CC[C@@]4(C)[C@]3(C)CC[C@@]2(C(=O)C(=O)NCc2ccncc2)CC1=O`, the IC50 in [1] is 6200 nM; in experiment [2] it was above 10000 nM.
